From US10688093B2, “Methods, compositions, and uses of novel Fyn kinase inhibitors” (priority 2015, dated 2020)

target: full-length recombinant human FYN A (Homo sapiens (Human), UniProt P06241); experiment: ADP-Glo Kinase Assay of FYN kinase inhibition; assay type: biochemical; details: primary screen, initial compounds
From the text: The chemical library was comprised of the SoftFocus ATP-competitive hinge binding compounds described by Harris, C. J., Hill, R. D., Sheppard, D. W., et al., The Design and Application of Target-Focused Compound Libraries. Combinatorial Chemistry and High Throughput Screening 14:521-31 (2011). The specific pharmacore chemistries included SFK52 comprising 6-[R2]-3-[R1]imidazo[1,2-b] pyridazine compounds, SFK33 comprising N-(3-[R2] imidazo [1,2-b] pyridazin-6-yl) [R1] amine compounds, SFK49 comprising N-(5-[R2] imidazo [2,1-b][1,3,4] thiadiazol-2-yl)[R1]-amine compounds, SFK 40 comprising 5-[R2]-3-[R1] pyridin-2-amine compounds, SFK43 comprising 6-[R2]-3-[R1]imidazo[1,2-a]pyrazine compounds, and SFK63. The chemical structures of the initial 600 potential kinase inhibitors are presented in Table 3, with those chosen for additional analysis presented in Table 4. Comparison of the compounds presented in Table 1 and those of Tables 2, 3 and 4, illustrate the novelty of the chemical structures claimed herein.
FYN kinase (10 micrograms) was from the FYN A Kinase Enzyme System (V3571, Promega UK Ltd.), a full-length recombinant human FYN A containing an N-terminal GST tag of about 85 kDa, expressed by bacullovirus in […] insect cells, supplied at a concentration of 0.1 microgram/microliter in 5×reaction buffer. The FYN substrate, a 12 amino acid peptide of the sequence […], containing a single tyrosine phosphorylation site, was custom synthesized (Peptide Synthetics, Peptide Protein Research, Fareham, UK) and supplied as a 4 mg/ml aqueous solution. All other reagents were obtained from Sigma (Sigma-Aldrich, Gillingham, Dorset, UK), with the exception of UltraPure ATP (V9102, Promega UK Ltd.) and the ATP-competitive broad spectrum protein kinase inhibitor staurosporine (569397, Merck Millipore, Watford, Hertfordshire, UK), or as otherwise indicated.
The assay procedure determines the IC50 of each potential FYN kinase inhibitor by measuring the enzyme catalyzed ATP-dependent phosphorylation of the FYN substrate peptide. The ADP-Glo™ Kinase Assay is specifically designed to quantify kinase activity by measuring the ADP produced in the reaction The reaction buffer comprises 40 mM Tris.HCl (pH 7.5), 20 mM MgCl2, 0.1 mg/ml BSA and 5 microM DTT. Individual compounds within the chemical library were dissolved in DMSO at known concentrations. Briefly, 2.5 microliters of reaction buffer containing 3 picograms of FYN kinase and serial dilutions of each potential FYN kinase inhibitor (9 3-fold dilutions of a 10 micromolar top sample) are placed into each well of a 384 well microtiter plate and incubated at room temperature for 30 minutes. An additional 2.5 microliters of reaction buffer containing 100 picograms of the FYN substrate and 12.5 picomoles of ATP are then added to each well and the reaction carried out for 90 minutes at room temperature. The reactions are terminated by addition of 5 microliters of the ADP-Glo™ Reagent component of the ADP-Glo™ Kinase Assay kit to each well. The ADP-Glo™ Reagent comprises an ATP-dependent adenylate cyclase, an inorganic pyrophosphatase and an excess of staurosporine. The adenylate cyclase converts the remaining ATP to cAMP and pyrophospahte, the pyrophosphatase converts the pyrophosphate to phosphate and the staurosporine inhibits the activity of the FYN kinase, the net effect is to remove all residual ATP while preserving the ADP produced by FYN kinase. The terminated reactions are incubated for 40 minutes at room temperature, prior to addition of the Kinase Detection Reagent component of the ADP-Glo™ Kinase Assay kit to each well. The Kinase Detection Reagent comprises pyruvate kinase, phosphoenol pyruvate (PEP), luciferin and luciferase. The pyruvate kinase converts PEP to pyruvate and in the process generates ATP from the residual ADP present in the terminated reaction. […]

Chain of full-length recombinant human FYN A (P06241 whole entry): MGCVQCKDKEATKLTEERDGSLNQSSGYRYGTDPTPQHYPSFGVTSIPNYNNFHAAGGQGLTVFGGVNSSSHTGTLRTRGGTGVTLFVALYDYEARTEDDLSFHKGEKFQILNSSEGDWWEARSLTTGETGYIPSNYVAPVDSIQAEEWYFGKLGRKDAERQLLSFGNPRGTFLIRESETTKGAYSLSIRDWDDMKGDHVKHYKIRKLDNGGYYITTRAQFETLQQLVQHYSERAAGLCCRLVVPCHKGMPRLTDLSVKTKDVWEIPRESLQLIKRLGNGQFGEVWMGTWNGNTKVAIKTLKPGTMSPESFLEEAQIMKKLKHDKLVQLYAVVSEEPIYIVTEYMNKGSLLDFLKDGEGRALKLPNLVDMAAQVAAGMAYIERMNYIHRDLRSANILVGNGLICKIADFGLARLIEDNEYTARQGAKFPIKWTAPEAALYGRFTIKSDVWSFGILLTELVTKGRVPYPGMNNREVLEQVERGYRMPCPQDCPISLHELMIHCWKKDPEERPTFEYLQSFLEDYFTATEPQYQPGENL

Structure (SMILES)	IC50 [µM]
COc1ccc(-c2cncc(-c3cccc(NC(C)=O)c3)n2)cc1 [035_0081_0280, N-[3-[6-(4-methoxyphenyl)pyrazin-2-yl]phenyl] acetamide]	3.5
CC(=O)Nc1cccc(-c2cncc(-c3cccc(O)c3)n2)c1 [035_0081_0284, N-[3-[6-(3-hydroxyphenyl)pyrazin-2-yl]phenyl] acetamide]	3.88
CCC(CO)Nc1cncc(-c2ccc(O)cc2)n1 (stereo not drawn) [035_0153_0080, 4-[6-[1-(hydroxymethyl)propylamino]pyrazin-2-yl]phenol]	15.3
CCC(CO)Nc1cncc(-c2cc(C(C)C)ccc2OC)n1 (stereo not drawn) [035_0153_0286, 2-[[6-(5-isopropyl-2-methoxy-phenyl)pyrazin-2-yl]amino]butan-1-ol]	11.8
CCC(CO)Nc1cncc(-c2ccc(N)cc2)n1 (stereo not drawn) [035_0153_0333, 2-[[6-(4-aminophenyl)pyrazin-2-yl]amino]butan-1-ol]	21.1
Nc1cccc(-c2cncc(NCc3ccccc3)n2)c1 [035_0232_0005, 6-(3-aminophenyl)-N-benzyl-pyrazin-2-amine]	6.68
COc1ccc(-c2cncc(-c3cccc(C(=O)NCCCN(C)C)c3)n2)cc1 [035_0280_0302, N-[3-(dimethylamino)propyl]-3-[6-(4-methoxyphenyl)pyrazin-2-yl]benzamide]	9.06
COc1ccc(-c2cncc(-c3ccc(O)c(OC)c3)n2)cc1 [035_0280_0314, 2-methoxy-4-[6-(4-methoxyphenyl)pyrazin-2-yl]phenol]	5.18
COc1cc(Nc2cncc(-c3cccc(NC(C)=O)c3)c2)cc(OC)c1OC [081_0087_0081, N-[3-[5-(3,4,5-trimethoxyanilino)-3-pyridyl]phenyl] acetamide]	0.391
C[C@@H](c1ccccc1)n1c(=O)[nH]c2ncc(-c3cccc(C(=O)N(C)C)c3)nc21 [170_0148_0349, N,N-dimethyl-3-[2-oxo-3-[(1S)-1-phenylethyl]-1H-imidazo[4,5-b]pyrazin-5-yl]benzamide]	1.78
COc1cccc(Cn2c(=O)[nH]c3ncc(-c4cc(OC)c(OC)c(OC)c4)nc32)c1 [170_4313_0087, 3-[(3-methoxyphenyl)methyl]-5-(3,4,5-trimethoxy-phenyl)-1H-imidazo[4,5-b]pyrazin-2-one]	23.4
CN(C)c1cccc(-c2cnc(Nc3ccc(N4CCOCC4)cc3)c3nccn23)c1 [184_0088_0135, 5-[3-(dimethyl-amino)phenyl]-N-(4-morpholino-phenyl) imidazo[1,2-a]pyrazin-8-amine]	2.7
COCCNc1ccc2ncc(-c3ccsc3)n2n1 [229_0033_0074, N-(2-methoxy-ethyl)-3-(3-thienyl)imidazo [1,2-b]pyridazin-6-amine]	5.23
COCCNc1ccc2ncc(-c3ccc(OC)c(OC)c3)n2n1 [229_0033_0079, 3-(3,4-dimethoxy-phenyl)-N-(2-methoxyethyl) imidazo[1,2-b]pyridazin-6-amine]	1.55
COCCNc1ccc2ncc(-c3ccc(F)cc3)n2n1 [229_0033_0339, 3-(4-fluoro-phenyl)-N-(2-methoxyethyl) imidazo[1,2-b]pyridazin-6-amine]	4
c1ccc(-c2cnc3ccc(NCc4ccco4)nn23)cc1 [229_0144_0061, N-(2-furylmethyl)-3-phenyl-imidazo[1,2-b]pyridazin-6-amine]	6.38
COc1cc(-c2cnc3ccc(NCc4ccco4)nn23)cc(OC)c1OC [229_0144_0086, N-(2-furylmethyl)-3-(3,4,5-trimethoxyphenyl) imidazo[1,2-b]pyridazin-6-amine]	4.9
O=C(O)c1ccc(-c2cnc3ccc(NCc4ccco4)nn23)cc1 [229_0144_0140, 4-[6-(2-furylmethyl-amino)imidazo[1,2-b]pyridazin-3-yl]benzoic acid]	3.88

Structure (SMILES)	IC50 [µM]
COc1ccc(-c2cnc3ccc(NCc4ccco4)nn23)cc1 [229_0144_0280, N-(2-furyl-methyl)-3-(4-methoxyphenyl) imidazo[1,2-b]pyridazin-6-amine]	3.68
Nc1cccc(-c2cnc3ccc(NCc4cccs4)nn23)c1 [229_0146_0005, 3-(3-aminophenyl)-N-(2-thienyimethyl) imidazo[1,2-b]pyridazin-6-amine]	1.79
COc1cc(-c2cnc3ccc(NCc4cccs4)nn23)cc(OC)c1OC [229_0146_0087, N-(2-thienylmethyl)-3-(3,4,5-trimethoxyphenyl) imidazo[1,2-b]pyridazin-6-amine]	3.1
COc1ccc(-c2cnc3ccc(NCc4cccs4)nn23)cc1 [229_0146_0280, 3-(4-methoxyphenyl)-N-(2-thienylmethyl) imidazo[1,2-b]pyridazin-6-amine]	5.39
Oc1cccc(-c2cnc3ccc(NCc4cccs4)nn23)c1 [229_0146_0284, 3-[6-(2-thienylmethyl-amino)imidazo[1,2-b]pyridazin-3-yl]phenol]	1.7
OCc1ccc(-c2cnc3ccc(NCc4cccs4)nn23)cc1 [229_0146_0285, [4-[6-(2-thienylmethyl-amino)imidazo[1,2-b]pyridazin-3-yl]phenyl] methanol]	1.09
Nc1ccc(-c2cnc3ccc(NCc4cccs4)nn23)cc1 [229_0146_0333, 3-(4-amino-phenyl)-N-(2-thienylmethyl) imidazo[1,2-b]pyridazin-6-amine]	5.42
Fc1ccc(-c2cnc3ccc(NCc4cccs4)nn23)cc1 [229_0146_0339, 3-(4-fluoro-phenyl)-N-(2-thienylmethyl) imidazo[1,2-b]pyridazin-6-amine]	3.28
COc1cccc(-c2cnc3ccc(NCc4cccs4)nn23)c1 [229_0146_4140, 3-(3-methoxyphenyl)-N-(2-thienylmethyl) imidazo[1,2-b]pyridazin-6-amine]	2.95
CC(=O)c1cccc(-c2cnc3ccc(NCc4cccs4)nn23)c1 [229_0146_4145, 1-[3-[6-(2-thienylmethyl-amino)imidazo[1,2-b]pyridazin-3-yl]phenyl] ethanone]	0.441
CCC(CO)Nc1ccc2ncc(-c3cc(OC)c(OC)c(OC)c3)n2n1 (stereo not drawn) [229_0153_0087, 2-[[3-(3,4,5-trimethoxy-phenyl)imidazo[1,2-b]pyridazin-6-yl]amino] butan-1-ol]	1.28
CCC(CO)Nc1ccc2ncc(-c3ccc(OC)cc3)n2n1 (stereo not drawn) [229_0153_0280, 2-[[3-(4-methoxyphenyl)imidazo[1,2-b]pyridazin-6-yl]amino] butan-1-ol]	1.28
CCC(CO)Nc1ccc2ncc(-c3ccc(CO)cc3)n2n1 (stereo not drawn) [229_0153_0285, 2-[[3-[4-(hydroxy-methyl)phenyl]imidazo[1,2-b]pyridazin-6-yl]amino]butan-1-ol]	2.47
CCC(CO)Nc1ccc2ncc(-c3ccc(OC)nc3)n2n1 (stereo not drawn) [229_0153_0311, 2-[[3-(6-methoxy-3-pyridyl)imidazo [1,2-b]pyridazin-6-yl]amino] butan-1-ol]	2.37
CCC(CO)Nc1ccc2ncc(-c3cccc(OC)c3)n2n1 (stereo not drawn) [229_0153_4140, 2-[[3-(3-methoxyphenyl)imidazo[1,2-b]pyridazin-6-yl]amino]butan-1-ol]	1.55
CCC(CO)Nc1ccc2ncc(-c3cccs3)n2n1 (stereo not drawn) [229_0153_4147, 2-[[3-(2-thienyl)imidazo [1,2-b]pyridazin-6-yl]amino] butan-1-ol]	3.97
COc1ccc(-c2cnc3ccc(NCc4cccc(Cl)c4)nn23)cc1 [229_0223_0280, N-[(3-chlorophenyl)methyl]-3-(4-methoxyphenyl) imidazo[1,2-b]pyridazin-6-amine]	10.7
OCc1cccc(-c2cnc3ccc(NCc4cccc(Cl)c4)nn23)c1 [229_0223_0291, [3-[6-[(3-chlorophenyl)methylamino]imidazo[1,2-b]pyridazin-3-yl]phenyl] methanol]	5.11
